Measurements from US20110172147A1, “NEUROPEPTIDE-2 RECEPTOR (Y-2R) AGONISTS” (priority 2009, published 2011).

Columns and labels:
Assay type in all cases: cell-based
Y1R = target: T1, Y1R (Homo sapiens, UniProt P25929); assay: CaFlux Assay (FLIPR), Y1R
T1 sequence (P25929 1-384): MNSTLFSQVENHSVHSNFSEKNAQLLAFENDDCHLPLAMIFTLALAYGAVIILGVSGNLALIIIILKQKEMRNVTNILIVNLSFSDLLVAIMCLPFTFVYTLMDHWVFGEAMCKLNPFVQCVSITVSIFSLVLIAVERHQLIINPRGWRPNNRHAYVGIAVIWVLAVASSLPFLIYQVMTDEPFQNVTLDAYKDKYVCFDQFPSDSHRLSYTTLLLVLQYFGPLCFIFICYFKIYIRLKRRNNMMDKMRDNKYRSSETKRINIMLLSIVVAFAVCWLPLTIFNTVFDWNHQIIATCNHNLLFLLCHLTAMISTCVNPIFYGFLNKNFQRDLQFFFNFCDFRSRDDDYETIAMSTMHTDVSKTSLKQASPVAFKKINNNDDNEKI

Y4R = Y4R (Homo sapiens, UniProt P50391); assay: CaFlux Assay (FLIPR), Y4R
Y5R = target: T2, Y5R (Homo sapiens, UniProt Q15761); assay: CaFlux Assay (FLIPR), Y5R
T2 sequence (Q15761 1-445): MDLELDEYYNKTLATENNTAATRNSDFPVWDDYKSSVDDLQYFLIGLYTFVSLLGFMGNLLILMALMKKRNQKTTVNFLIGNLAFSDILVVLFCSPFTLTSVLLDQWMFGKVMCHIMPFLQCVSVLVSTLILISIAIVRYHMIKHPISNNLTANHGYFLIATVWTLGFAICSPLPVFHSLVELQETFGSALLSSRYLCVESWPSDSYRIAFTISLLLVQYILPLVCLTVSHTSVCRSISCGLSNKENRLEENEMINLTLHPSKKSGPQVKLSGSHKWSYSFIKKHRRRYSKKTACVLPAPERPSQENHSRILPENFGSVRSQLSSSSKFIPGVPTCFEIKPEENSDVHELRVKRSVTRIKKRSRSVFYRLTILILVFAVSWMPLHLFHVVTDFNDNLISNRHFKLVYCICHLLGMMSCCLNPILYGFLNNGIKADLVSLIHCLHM

hNPY2R [1] = target: T3, hNPY2R (Homo sapiens, UniProt P49146); assay: cAMP Agonist Assay, HEK293/hNPY2R; parameters: expressed in transfected cells; host or cells: HEK293/hNPY2R (G418 selection)
T3 sequence (P49146 1-381): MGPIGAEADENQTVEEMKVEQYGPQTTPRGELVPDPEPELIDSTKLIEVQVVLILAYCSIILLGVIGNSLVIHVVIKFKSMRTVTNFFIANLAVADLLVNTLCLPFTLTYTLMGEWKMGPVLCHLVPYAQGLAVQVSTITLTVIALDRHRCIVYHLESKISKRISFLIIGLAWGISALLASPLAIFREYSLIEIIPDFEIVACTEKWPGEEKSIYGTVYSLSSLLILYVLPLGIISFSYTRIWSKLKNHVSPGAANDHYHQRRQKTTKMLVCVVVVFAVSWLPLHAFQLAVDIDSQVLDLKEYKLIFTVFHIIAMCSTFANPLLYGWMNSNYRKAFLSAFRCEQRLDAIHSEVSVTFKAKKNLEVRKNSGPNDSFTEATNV
Method in brief: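 Intracellular cAMP quantified by luminescent competitive ELISA after a 30 min room-temperature treatment of overnight-plated HEK293/hNPY2R cells with compound in medium containing 5 μM forskolin, 0.5 mM IBMX and 1.1% DMSO; four replicates per concentration.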

hNPY2R [2] = target: T3, hNPY2R; assay: CaFlux Assay (FLIPR), Y2R; parameters: expressed in transfected cells; host or cells: HEK-293 stably transfected with G protein chimera Gαqi9
Method in brief: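 Read-out was the peak increase in Calcium-3 fluorescence on FLIPR, monitored 100 s after compound addition, with each well's pre-stimulation reading as zero and data given as % of the positive control's maximal response. Cells were HEK-293 stably carrying Gαqi9 plus receptor.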

Y4R, sequence (P50391 whole entry): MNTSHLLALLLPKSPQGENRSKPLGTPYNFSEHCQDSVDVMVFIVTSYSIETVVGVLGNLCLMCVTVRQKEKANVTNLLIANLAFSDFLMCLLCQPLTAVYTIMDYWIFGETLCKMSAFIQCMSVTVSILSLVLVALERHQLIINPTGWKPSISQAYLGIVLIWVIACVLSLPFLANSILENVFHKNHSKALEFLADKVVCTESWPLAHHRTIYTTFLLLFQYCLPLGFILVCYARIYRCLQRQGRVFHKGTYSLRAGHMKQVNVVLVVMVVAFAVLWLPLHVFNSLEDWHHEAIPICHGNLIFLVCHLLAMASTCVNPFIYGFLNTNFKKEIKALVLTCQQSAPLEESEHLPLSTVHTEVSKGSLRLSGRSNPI

Compound | EC50 (Y1R) [nM] | EC50 (Y4R) [nM] | EC50 (Y5R) [nM] | EC50 (hNPY2R [1]) [nM] | EC50 (hNPY2R [2]) [nM] | Y5R FLIPR agonist character (partial agonist mark) (Y5R)
CCCCCCCCCCCCCCCCCCCC(=O)N[C@@H](CCC(=O)N[C@@H](CCC(=O)NCCCC[C@H](NC(=O)[C@@H](NC(=O)COCCOCCOC)[C@@H](C)CC)C(=O)N1CCN(c2ccc3ncn(CC(=O)N[C@@H](CCCNC(=N)N)C(=O)N[C@@H](Cc4c[nH]cn4)C(=O)N[C@@H](Cc4ccc(O)cc4)C(=O)N[C@@H](CC(C)C)C(=O)N[C@@H](CC(N)=O)C(=O)N[C@@H](Cc4c[nH]c5ccccc45)C(=O)N[C@H](C(=O)N[C@H](C(=O)N[C@@H](CCCNC(=N)N)C(=O)N[C@@H](CCC(N)=O)C(=O)N(C)[C@@H](CCCNC(=N)N)C(=O)N[C@@H](Cc4ccc(O)cc4)C(N)=O)[C@@H](C)O)C(C)C)c(=O)c3c2)CC1)C(=O)O)C(=O)O [Example 22] | > 6000 | > 6000 | 1510 | 0.065 | 0.298 | –
CCCCCCCCCCCCCCCCCCCC(=O)N[C@@H](CCC(=O)N[C@@H](CCC(=O)NCCCC[C@H](NC(=O)[C@@H](NC(=O)CCOCCOCCOCCOCCOCCOCCOCCOC)[C@@H](C)CC)C(=O)N1CCN(c2ccc3ncn(CC(=O)N[C@@H](CCCNC(=N)N)C(=O)N[C@@H](Cc4c[nH]cn4)C(=O)N[C@@H](Cc4ccc(O)cc4)C(=O)N[C@@H](CC(C)C)C(=O)N[C@@H](CC(N)=O)C(=O)N[C@@H](Cc4c[nH]c5ccccc45)C(=O)N[C@H](C(=O)N[C@H](C(=O)N[C@@H](CCCNC(=N)N)C(=O)N[C@@H](CCC(N)=O)C(=O)N(C)[C@@H](CCCNC(=N)N)C(=O)N[C@@H](Cc4ccc(O)cc4)C(N)=O)[C@@H](C)O)C(C)C)c(=O)c3c2)CC1)C(=O)O)C(=O)O [Example 23] | > 9000 | > 9000 | 2210 | 0.05 | 0.295 | –
CCCCCCCCCCCCCCCCCCCC(=O)N[C@@H](CCC(=O)N[C@@H](CCC(=O)NCCCC[C@H](NC(=O)[C@@H](NC(=O)CCOCCOCCOCCOCCOCCOCCOCCOCCOCCOCCOCCOCCOCCOCCOCCOC)[C@@H](C)CC)C(=O)N1CCN(c2ccc3ncn(CC(=O)N[C@@H](CCCNC(=N)N)C(=O)N[C@@H](Cc4c[nH]cn4)C(=O)N[C@@H](Cc4ccc(O)cc4)C(=O)N[C@@H](CC(C)C)C(=O)N[C@@H](CC(N)=O)C(=O)N[C@@H](Cc4c[nH]c5ccccc45)C(=O)N[C@H](C(=O)N[C@H](C(=O)N[C@@H](CCCNC(=N)N)C(=O)N[C@@H](CCC(N)=O)C(=O)N(C)[C@@H](CCCNC(=N)N)C(=O)N[C@@H](Cc4ccc(O)cc4)C(N)=O)[C@@H](C)O)C(C)C)c(=O)c3c2)CC1)C(=O)O)C(=O)O [Example 25] | > 9000 | > 9000 | 2580 | 0.09 | 0.14 | P.A
CCCCCCCCCCCCCCCCCCCC(=O)N[C@@H](CCC(=O)N[C@@H](CCC(=O)NCCCC[C@H](NC(=O)[C@@H](NC(=O)CCOCCOCCOCCOCCOCCOCCOCCOCCOCCOCCOCCOCCOCCOCCOCCOCCOCCOCCOCCOCCOCCOCCOCCOC)[C@@H](C)CC)C(=O)N1CCN(c2ccc3ncn(CC(=O)N[C@@H](CCCNC(=N)N)C(=O)N[C@@H](Cc4c[nH]cn4)C(=O)N[C@@H](Cc4ccc(O)cc4)C(=O)N[C@@H](CC(C)C)C(=O)N[C@@H](CC(N)=O)C(=O)N[C@@H](Cc4c[nH]c5ccccc45)C(=O)N[C@H](C(=O)N[C@H](C(=O)N[C@@H](CCCNC(=N)N)C(=O)N[C@@H](CCC(N)=O)C(=O)N(C)[C@@H](CCCNC(=N)N)C(=O)N[C@@H](Cc4ccc(O)cc4)C(N)=O)[C@@H](C)O)C(C)C)c(=O)c3c2)CC1)C(=O)O)C(=O)O [Example 26] | > 9000 | > 9000 | 1920 | 0.1 | 0.01 | P.A
CCCCCCCCCCCCCCCC(=O)NCCCCCC(=O)N[C@H](C(=O)N[C@@H](CCCCNC(=O)CCOCCOCCOCCOCCOCCOCCOCCOC)C(=O)N1CCN(c2ccc3ncn(CC(=O)N[C@@H](CCCNC(N)=O)C(=O)N[C@@H](Cc4c[nH]cn4)C(=O)N[C@@H](Cc4ccc(O)cc4)C(=O)N[C@@H](CC(C)C)C(=O)N[C@@H](CC(N)=O)C(=O)N[C@@H](Cc4c[nH]c5ccccc45)C(=O)N[C@H](C(=O)N[C@H](C(=O)N[C@@H](CCCNC(=N)N)C(=O)N[C@@H](CCC(N)=O)C(=O)N(C)[C@@H](CCCNC(=N)N)C(=O)N[C@@H](Cc4ccc(O)cc4)C(N)=O)[C@@H](C)O)C(C)C)c(=O)c3c2)CC1)[C@@H](C)CC [Example 30] | > 6000 | > 6000 | 5690 | 0.47 | 0.143 | –
CCCCCCCCCCCCCCCC(=O)NCCCCCC(=O)N[C@H](C(=O)N[C@@H](CCCCNC(=O)CCOCCOCCOCCOCCOCCOCCOCCOCCOCCOCCOCCOC)C(=O)N1CCN(c2ccc3ncn(CC(=O)N[C@@H](CCCNC(N)=O)C(=O)N[C@@H](Cc4c[nH]cn4)C(=O)N[C@@H](Cc4ccc(O)cc4)C(=O)N[C@@H](CC(C)C)C(=O)N[C@@H](CC(N)=O)C(=O)N[C@@H](Cc4c[nH]c5ccccc45)C(=O)N[C@H](C(=O)N[C@H](C(=O)N[C@@H](CCCNC(=N)N)C(=O)N[C@@H](CCC(N)=O)C(=O)N(C)[C@@H](CCCNC(=N)N)C(=O)N[C@@H](Cc4ccc(O)cc4)C(N)=O)[C@@H](C)O)C(C)C)c(=O)c3c2)CC1)[C@@H](C)CC [Example 31] | > 6000 | > 6000 | 3510 | 0.37 | 0.111 | –
CCCCCCCCCCCCCCCC(=O)NCCCCCC(=O)N[C@H](C(=O)N[C@@H](CCCCNC(=O)CCOCCOCCOCCOCCOCCOCCOCCOCCOCCOCCOCCOCCOCCOCCOCCOC)C(=O)N1CCN(c2ccc3ncn(CC(=O)N[C@@H](CCCNC(N)=O)C(=O)N[C@@H](Cc4c[nH]cn4)C(=O)N[C@@H](Cc4ccc(O)cc4)C(=O)N[C@@H](CC(C)C)C(=O)N[C@@H](CC(N)=O)C(=O)N[C@@H](Cc4c[nH]c5ccccc45)C(=O)N[C@H](C(=O)N[C@H](C(=O)N[C@@H](CCCNC(=N)N)C(=O)N[C@@H](CCC(N)=O)C(=O)N(C)[C@@H](CCCNC(=N)N)C(=O)N[C@@H](Cc4ccc(O)cc4)C(N)=O)[C@@H](C)O)C(C)C)c(=O)c3c2)CC1)[C@@H](C)CC [Example 32] | > 6000 | > 6000 | 4760 | 0.23 | 0.15 | –
CCCCCCCCCCCCCCCCCCCC(=O)NCCCCCC(=O)N[C@H](C(=O)N[C@@H](CCCCNC(=O)CCOCCOCCOCCOCCOCCOCCOCCOCCOCCOCCOCCOCCOCCOCCOCCOCCOCCOCCOCCOCCOCCOCCOCCOC)C(=O)N1CCN(c2ccc3ncn(CC(=O)N[C@@H](CCCNC(N)=O)C(=O)N[C@@H](Cc4c[nH]cn4)C(=O)N[C@@H](Cc4ccc(O)cc4)C(=O)N[C@@H](CC(C)C)C(=O)N[C@@H](CC(N)=O)C(=O)N[C@@H](Cc4c[nH]c5ccccc45)C(=O)N[C@H](C(=O)N[C@H](C(=O)N[C@@H](CCCNC(=N)N)C(=O)N[C@@H](CCC(N)=O)C(=O)N(C)[C@@H](CCCNC(=N)N)C(=O)N[C@@H](Cc4ccc(O)cc4)C(N)=O)[C@@H](C)O)C(C)C)c(=O)c3c2)CC1)[C@@H](C)CC [Example 33] | > 6000 | > 6000 | 4290 | 0.13 | 0.127 | –
